Values quoted from earlier work, collected in patent US20090011476A1, “GENE CLUSTER AND METHOD FOR THE BIOSYNTHESIS OF TERREQUINONE A” (Wisconsin Alumni Research Foundation, priority 2005, published 2009).

System: tumor cell lines
Conditions: literature statement, values not given

In the case of terrequinone A, the “inhibitory properties on tumor cell lines” value is listed as “inhibitory properties”.
